Results from the supplement of paper PMC5908809.

Tests used:
[1] = tested on: normal NK cells expanded with K562-aAPC; assay: percent inhibition of viability; higher = more inhibition; conditions: 72 h, IL-2 2.5 ng/mL
Procedure: (§1)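 Drug sensitivity and resistance testing on K562-aAPC-expanded normal NK cells: 5 concentrations (10-fold steps over a 10,000-fold range), 72 h at 37 °C, viability by CellTiter-Glo normalised to DMSO and benzethonium chloride controls; DSS from the fitted curve.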

DERL-7 (IL-2 2.5 ng/mL) [2] = assay: as above; conditions: 72 h
IMC-1 (IL-2 20 ng/mL) [3] = assay: as above; conditions: 72 h
KAI3 (IL-2 2.5 ng/mL) [4] = assay: as above; conditions: 72 h
KHYG-1 (IL-2 2.5 ng/mL) [5] = assay: as above; conditions: 72 h
NK-92 (IL-2 2.5 ng/mL) [6] = assay: as above; conditions: 72 h
NK-YS (IL-2 2.5 ng/mL) [7] = assay: as above; conditions: 72 h
NKL (IL-2 2.5 ng/mL) [8] = assay: as above; conditions: 72 h
SNK-6 (IL-2 2.5 ng/mL) [9] = assay: as above; conditions: 72 h
YT (IL-2 2.5 ng/mL) [10] = assay: as above; conditions: 72 h
[11] = tested on: normal primary NK cells, pool 1 (3 donors) (IL-2 2.5 ng/mL); assay: as above; conditions: 72 h
[12] = tested on: normal primary NK cells, pool 1 (3 donors), resting (IL-2 0 ng/mL); assay: as above; conditions: 72 h
[13] = tested on: normal primary NK cells, pool 2 (3 donors) (IL-2 2.5 ng/mL); assay: as above; conditions: 72 h
[14] = tested on: normal primary NK cells, pool 3 (3 donors) (IL-2 2.5 ng/mL); assay: as above; conditions: 72 h
[15] = tested on: normal NK cells expanded with K562-aAPC; assay: drug sensitivity score (DSS) (DSS units); higher = more sensitive; extreme values may be limits of the assay; conditions: 72 h; IL-2 2.5 ng/mL
Procedure: as §1

DERL-7 (IL-2 2.5 ng/mL) [16] = assay: as above; conditions: 72 h
IMC-1 (IL-2 20 ng/mL) [17] = assay: as above; conditions: 72 h
KAI3 (IL-2 2.5 ng/mL) [18] = assay: as above; conditions: 72 h
KHYG-1 (IL-2 2.5 ng/mL) [19] = assay: as above; conditions: 72 h
NK-92 (IL-2 2.5 ng/mL) [20] = assay: as above; conditions: 72 h
NK-YS (IL-2 2.5 ng/mL) [21] = assay: as above; conditions: 72 h
NKL (IL-2 2.5 ng/mL) [22] = assay: as above; conditions: 72 h
SNK-6 (IL-2 2.5 ng/mL) [23] = assay: as above; conditions: 72 h
YT (IL-2 2.5 ng/mL) [24] = assay: as above; conditions: 72 h
[25] = tested on: normal primary NK cells, pool 1 (3 donors) (IL-2 2.5 ng/mL); assay: as above; conditions: 72 h
[26] = tested on: normal primary NK cells, pool 1 (3 donors), resting (IL-2 0 ng/mL); assay: as above; conditions: 72 h
[27] = tested on: normal primary NK cells, pool 2 (3 donors) (IL-2 2.5 ng/mL); assay: as above; conditions: 72 h
[28] = tested on: normal primary NK cells, pool 3 (3 donors) (IL-2 2.5 ng/mL); assay: as above; conditions: 72 h

CC(=O)Nc1cccc(-n2c(=O)n(C3CC3)c(=O)c3c(Nc4ccc(I)cc4F)n(C)c(=O)c(C)c32)c1 [Trametinib] (max concentration tested 250 nM)
percent inhibition of viability [%]
Conditions | 0.025 nM | 0.25 nM | 2.5 nM | 25 nM | 250 nM
DERL-7 (IL-2 2.5 ng/mL) [2] | 1.02 | 7.15 | 24.3 | 38.5 | 49.2
IMC-1 (IL-2 20 ng/mL) [3] | -7.84 | -6.23 | -12.6 | -5.74 | -11.9
KAI3 (IL-2 2.5 ng/mL) [4] | -0.65 | 10.4 | 14.7 | 17.6 | 21.2
KHYG-1 (IL-2 2.5 ng/mL) [5] | -1.89 | -0.88 | 17.2 | 47.1 | 54.2
NK-92 (IL-2 2.5 ng/mL) [6] | -8.96 | -8.36 | -15.1 | -31.2 | -2.14
NK-YS (IL-2 2.5 ng/mL) [7] | -3.76 | 0.79 | 3.16 | 13.2 | 9.03
NKL (IL-2 2.5 ng/mL) [8] | -13.6 | -3.27 | 31.2 | 60.9 | 62.5
SNK-6 (IL-2 2.5 ng/mL) [9] | 8.07 | 2.1 | -22.8 | -18.2 | -19.1
YT (IL-2 2.5 ng/mL) [10] | -2.64 | -1.54 | 0.86 | 2.64 | -0.71
[1] | -1.03 | -2.71 | -0.52 | -0.63 | 1.09
[11] | -8.95 | -7.23 | 10.8 | 8.62 | 17.9
[12] | -7.3 | -4.37 | 3.53 | -1.6 | 4.62
[13] | -4.75 | -6.13 | -1.09 | 4.26 | -5.37
[14] | -14.5 | -14.1 | -12 | -11.3 | -11.4

Conditions | drug sensitivity score
DERL-7 (IL-2 2.5 ng/mL) [16] | 10.2
IMC-1 (IL-2 20 ng/mL) [17] | 0.89
KAI3 (IL-2 2.5 ng/mL) [18] | 4.13
KHYG-1 (IL-2 2.5 ng/mL) [19] | 10.7
NK-92 (IL-2 2.5 ng/mL) [20] | 0.89
NK-YS (IL-2 2.5 ng/mL) [21] | 1.13
NKL (IL-2 2.5 ng/mL) [22] | 15.5
SNK-6 (IL-2 2.5 ng/mL) [23] | 0
YT (IL-2 2.5 ng/mL) [24] | 0
[15] | 0
[25] | 1.13
[26] | 0
[27] | 0
[28] | 0.89

CS(=O)(=O)c1ccc(C(=O)Nc2ccc(Cl)c(-c3ccccn3)c2)c(Cl)c1 [Vismodegib] (max concentration tested 10000 nM)
percent inhibition of viability [%]
Conditions | 1 nM | 10 nM | 100 nM | 1000 nM | 10000 nM
DERL-7 (IL-2 2.5 ng/mL) [2] | 5.54 | 5.58 | 5.06 | 6.24 | 36.2
IMC-1 (IL-2 20 ng/mL) [3] | -2.4 | 2.13 | -1.82 | 2.66 | 8.93
KAI3 (IL-2 2.5 ng/mL) [4] | -6.47 | -10.6 | -10.8 | 8.7 | 6.77
KHYG-1 (IL-2 2.5 ng/mL) [5] | -7.27 | -4.1 | -4.53 | -3.56 | 13.7
NK-92 (IL-2 2.5 ng/mL) [6] | 1.83 | 1.49 | -0.7 | 17.8 | 59.3
NK-YS (IL-2 2.5 ng/mL) [7] | -6.25 | -5.83 | -1.92 | 0.14 | 14.4
NKL (IL-2 2.5 ng/mL) [8] | -2.06 | -5.75 | 8.65 | 9.14 | 39.8
SNK-6 (IL-2 2.5 ng/mL) [9] | -24.4 | -21.3 | -33.1 | -9.73 | 9.74
YT (IL-2 2.5 ng/mL) [10] | -2.78 | -9.59 | 3.13 | -6.38 | 24.6
[1] | -6.55 | -2.58 | -4.57 | 6.27 | 3.14
[11] | -0.96 | 12.3 | 5.5 | 3.58 | 12.3
[12] | -4.18 | 4.86 | 12.4 | 12.3 | 11.2
[13] | -4.51 | 8.63 | 4.94 | 7.5 | 11.8
[14] | -5.07 | -0.78 | 8.43 | -1.07 | 0.11

Conditions | drug sensitivity score
DERL-7 (IL-2 2.5 ng/mL) [16] | 2.77
IMC-1 (IL-2 20 ng/mL) [17] | 0
KAI3 (IL-2 2.5 ng/mL) [18] | 0
KHYG-1 (IL-2 2.5 ng/mL) [19] | 0.07
NK-92 (IL-2 2.5 ng/mL) [20] | 5.87
NK-YS (IL-2 2.5 ng/mL) [21] | 0.2
NKL (IL-2 2.5 ng/mL) [22] | 3.21
SNK-6 (IL-2 2.5 ng/mL) [23] | 0
YT (IL-2 2.5 ng/mL) [24] | 0.65
[15] | 0
[25] | 0
[26] | 1.51
[27] | 0.05
[28] | 0
